In US7879791B2 (Medical College of Georgia Research Institute, Inc., priority 1997, dated 2011):

Legend:
[1] = patients / individuals, literature reports; cited from earlier work
MB49 tumor cells = assay: MB49 epithelial carcinoma in syngeneic hosts; assay type: in vivo, mouse
Protocol: In light of the data herein showing that the allogeneic fetus is able to protect itself against attack by the maternal immune system through expression of IDO, and given the expression of IDO in tumors as cited above, it was tested whether a similar mechanism allowed tumor cells to evade immune attack. The MB49 epithelial carcinoma model was chosen for proof of concept because it is an aggressive, lethal malignancy when innoculated into syngeneic hosts, but it can be rendered susceptible to immune attack if the host's immune system is suitably activated (Chen, et al. 1997 J. Immunol. 159, 351-359). […] MB49 tumor cells (1×10^6) were injected subcutaneously into syngeneic C57/B16 hosts. […] By day 10, all animals had evidence of initial tumor formation (palpable mass). By day 15, control animals were visibly ill and the experiment was terminated. Animals were sacrificed on day 11-15 for histologic examination.

[2] = test system: tryptophan transport system in MCSF-derived macrophages; assay: [3H]tryptophan uptake in MCSF-derived macrophages with competing unlabeled amino acids; assay type: cell-based, human; details: for effectiveness as competitor for tryptophan uptake compared with phenylalanine: titration studies
Protocol: The graph compares fresh monocytes, MCSF-derived macrophages (day 7), and MCSF-derived macrophages activated for the preceding 24 hrs with IFNγ. All assays were performed in the presence of 140 mM NaCl. […] A logarithmic scale is used to permit comparison.
Macrophages were cultured for 7 days in MCSF and activated during the last 24 hrs with IFNγ.
This sodium-independent system was then characterized using cross-competition studies.

T cells = assay: T cell proliferation (thymidine incorporation) in co-culture conditioned medium with tryptophan titrated back; assay type: cell-based, human
Protocol: FIG. 1 is a graph of thymidine incorporation (cpm) by T cells in the presence of supplemental amino acids. […] Human monocytes were allowed to differentiate into macrophages then co-cultured with mitogen-activated T cells (anti-CD3). Fresh PBMC were then suspended in this medium and activated with additional anti-CD3. […] Control cultures received fresh medium. Proliferation was measured by 4 hr thymidine incorporation after 72 hrs. Error bars show SD.
Fresh lymphocytes were suspended in conditioned medium and activated with additional mitogen. Care was taken to exclude all traces of fresh medium.

IDO [3] = target: T1, IDO (Homo sapiens, UniProt P14902); assay: Macrophage-mediated suppression of T cell proliferation in co-cultures of MCSF-derived macrophages and T cells with anti-CD3; assay type: cell-based; set-up: endogenous in cells; host or cells: MCSF-derived human monocyte-derived macrophages co-cultured with T cells; details: 10x normal tryptophan
Protocol: Proliferation was measured after 72 hrs by thymidine incorporation. The level of background proliferation contributed by macrophages is indicated by the dotted line. In FIG. 4B, macrophages were seeded at both low density (5×10^4/well) and high density (2×10^5/well).
Target sequence in this assay (P14902 whole entry): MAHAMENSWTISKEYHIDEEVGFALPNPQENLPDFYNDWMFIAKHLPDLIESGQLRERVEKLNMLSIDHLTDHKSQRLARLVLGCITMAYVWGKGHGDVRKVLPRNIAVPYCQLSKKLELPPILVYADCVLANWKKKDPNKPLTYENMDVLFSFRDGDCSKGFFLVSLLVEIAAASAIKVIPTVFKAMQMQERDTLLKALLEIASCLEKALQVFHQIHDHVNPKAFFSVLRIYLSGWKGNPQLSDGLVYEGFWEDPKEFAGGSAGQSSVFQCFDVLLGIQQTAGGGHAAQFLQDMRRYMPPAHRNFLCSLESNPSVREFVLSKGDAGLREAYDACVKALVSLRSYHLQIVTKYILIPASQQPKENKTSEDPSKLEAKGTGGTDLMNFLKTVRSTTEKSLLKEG

MCSF-derived macrophages [4] = assay: Elimination kinetics of tryptophan in co-cultures of MCSF-derived macrophages and mitogen-activated T cells; assay type: cell-based, human; details: when tryptophan was not limiting
Protocol: MCSF-derived macrophages were cultured for 24 hrs with autologous T cells, with or without anti-CD3 mitogen. The medium was replaced with fresh medium, and supernatant from replicate cultures harvested at the times shown. […] Error bars (less than 10%) are omitted for clarity.
Depletion of tryptophan is rapid. Macrophages were co-cultured with T cells and mitogen for 24 hrs to allow up-regulation of the tryptophan-depletion pathway, then fresh medium was added and the kinetics of elimination measured. […] This rapid rate of tryptophan depletion could not be attributed to consumption by cellular metabolism.

MCSF-derived macrophages [5] = assay: Induction of IDO activity (tryptophan degradation) in MCSF-derived macrophages by IFNγ with or without CD40L; assay type: cell-based, human
Text: MCSF-derived macrophages were activated for 24 hrs with various concentrations of recombinant IFNγ, in the presence or absence of recombinant CD40-L trimer. […] SD was less than 10%.
The response of MCSF-derived macrophages to IFNγ in the presence or absence of recombinant CD40L (prepared as a homo-trimer in order to signal via CD40 in soluble form, gift of Bill Fanslow, Immunex Corporation) was compared.

IDO [6] = target: T1, IDO; set-up: host or cells: tumor xenografts in IFNγ-treated animals; details: IFNγ-treated animals; cited from earlier work
Target sequence in this assay (P14902 whole entry, species assumed): as the sequence (P14902 whole entry) above

[7] = group n = 7, pellets 0.9 mg/hr, 7-day release

CC(n1cc(C[C@H](N)C(=O)O)c2ccccc21)n1cc(C[C@H](N)C(=O)O)c2ccccc21 [1-1′ ethylidenebis-[tryptophan]]
autoimmune or adverse illness reported [1]: eosinophilia-myalgia syndrome

Cn1cc(C[C@H](N)C(=O)O)c2ccccc21 [1-methyl-tryptophan]
continuation of responses after the period of inhibitor administration (MB49 tumor cells; administration days 1-7): 4 to 7 days | histology (day 15) (MB49 tumor cells; day 15): apoptosis, necrosis, | complete responses (MB49 tumor cells; [7]): 1 | partial responses (MB49 tumor cells; [7]): 6 | tumor growth compared to vehicle control (MB49 tumor cells; immunocompetent, syngeneic hosts): significantly reduced tumor growth | performance status (MB49 tumor cells; mouse, in vivo): normal | visible metastases (MB49 tumor cells; mouse, in vivo): none | size of residual tumor (MB49 tumor cells; residual tumor necrotic): 1 cm (necrotic)

NC1(C(=O)O)CC2CCC1C2 (centres unmarked) [BCH, 2-amino-2-norborane-carboxylic acid]
total tryptophan transport still available ([2]; system L inhibited by 8 mM BCH): 30-50% | effectiveness as competitor for tryptophan uptake compared with phenylalanine [2]: even less effective competitors

N[C@@H](Cc1c[nH]c2ccc(O)cc12)C(=O)O [L-5-hydroxytryptophan]
autoimmune or adverse illness reported [1]: high frequency of a scleroderma-like illness

N[C@@H](Cc1ccc(O)cc1)C(=O)O [Tyrosine]
effectiveness as competitor for tryptophan uptake compared with phenylalanine [2]: even less effective competitors

CC(C)C[C@H](N)C(=O)O [leucine]
effectiveness as competitor for tryptophan uptake compared with phenylalanine [2]: even less effective competitors

N[C@@H](Cc1ccccc1)C(=O)O [phenylalanine]
inhibition of tryptophan uptake by competing unlabeled amino acid ([2]; 8 mM each, sodium-independent, FIG. 8B): could not fully block

N[C@@H](Cc1c[nH]c2ccccc12)C(=O)O [tryptophan]
EC50 (T cells; Homo sapiens, T-cell, 72 h, read-out: half-maximal concentration for T cell proliferation): ~500 nM | concentration sufficient to initiate low but readily detectable T cell proliferation (T cells; tryptophan in conditioned medium): 50 nM | reversal of suppression by supplemental tryptophan (IDO [3]; high seeding density (2x10^5/well)): remained able to suppress | reversal of suppression by supplemental tryptophan (IDO [3]; low seeding density (5x10^4/well)): effectively reversed suppression | autoimmune or adverse illness reported [1]: multiple autoimmune disorders | initial rate of tryptophan elimination (MCSF-derived macrophages [4]): up to 20,000 pmol/10^6 cells/hr

IFNγ: recombinant interferon gamma, inducer of IDO
IFNγ concentration at which significant response occurred (MCSF-derived macrophages [5]; in the presence of CD40L): ≥ 1 U/ml | concentration required for maximal induction of tryptophan degradation (MCSF-derived macrophages [5]; recombinant IFNγ alone, 24 hrs): ≥ 100 U/ml

B1: IFNγ: recombinant interferon gamma, inducer of IDO (protein, UniProt P01579 24-161, looked up)
Interferon gamma: QDPYVKEAENLKKYFNAGHSDVADNGTLFLGILKNWKEESDRKIMQSQIVSFYFKLFKNFKDDQSIQKSVETIKEDMNVKFFNSNKKKRDDFEKLTNYSVTDLNVQRKAIHELIQVMAELSPAAKTGKRKRSQMLFRG
reduction in tumor tryptophan compared to controls (IDO [6]): approximately 80%

B2: CD40L: recombinant CD40L prepared as a homo-trimer to signal via CD40 in soluble form (protein, UniProt P29965 47-261, looked up)
extracellular domain: HRRLDKIEDERNLHEDFVFMKTIQRCNTGERSLSLLNCEEIKSQFEGFVKDIMLNKEETKKENSFEMQKGDQNPQIAAHVISEASSKTTSVLQWAEKGYYTMSNNLVTLENGKQLTVKRQGLYYIYAQVTFCSNREASSQAPFIASLCLKSPGRFERILLRAANTHSSAKPCGQQSIHLGGVFELQPGASVFVNVTDPSQVSHGTGFTSFGLLKL
modifications: extracellular domain soluble homo-trimer
notes: recombinant CD40L prepared as a homo-trimer to signal via CD40 in soluble form
effect on enzyme activity (MCSF-derived macrophages [5]; CD40L alone): little effect | shift of the dose-response curve of IFNγ (MCSF-derived macrophages [5]; CD40L combined with IFNγ): one to two orders of magnitude
